In PubChem BioAssay (NCI):
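Interpolation was linear, between the two tested concentrations surrounding the appropriate level; five concentrations were tested over 48 hours in 96-well plates. At the TGI there is no net growth.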

Assays:
Test in all cases: NCI tumour cell line growth inhibition, 48 h
CAKI-1 renal = tested on: CAKI-1 renal
NCI-H23 lung = tested on: NCI-H23 lung
HOP-62 NSCLC = tested on: HOP-62 NSCLC
RPMI-8226 leukemia = tested on: RPMI-8226 leukemia
SK-MEL-2 melanoma = tested on: SK-MEL-2 melanoma
SF-295 CNS = tested on: SF-295 CNS

SMILES | TGI (CAKI-1 renal) [µM] | TGI (NCI-H23 lung) [µM] | TGI (HOP-62 NSCLC) [µM] | TGI (RPMI-8226 leukemia) [µM] | TGI (SK-MEL-2 melanoma) [µM] | TGI (SF-295 CNS) [µM]
COC(=O)C1CCN(C(=O)OC(C)(C)C)CC1 | > 100 | > 100 | > 100 | > 100 | > 100 | > 100
COC(=O)C1CCC(=S)N1C(=O)OCc1ccccc1 (stereo unspecified) | > 100 | > 100 | > 100 | > 100 | > 100 | > 100
NNC(=O)CC(=O)Nc1cccc(Cl)c1 | > 100 | > 100 | > 100 | > 100 | > 100 | > 100
Cc1cc(Cl)nc2nc(Cl)c(N)cc12 | 0.871 | 23.4 | 19 | 5.74 | 31.4 | 29.9
N#CC1(C#N)NC(c2ccccc2)C(C#N)(C#N)NC1c1ccccc1 (stereo unspecified) | > 100 | > 100 | > 100 | > 100 | > 100 | > 100
Nc1ccc2[nH]c(-c3cccc(C(F)(F)F)c3)cc(=O)c2c1 | > 100 | > 100 | > 100 | > 100 | – | –
COC(=O)/C=C\C(C#N)(C#N)N=Cc1cccc(OC)c1 | 5.17 | 16.4 | > 62.1 | > 28 | 32.4 | 53.8
O=C1c2ccccc2C(=O)N1CCSCC(CO)SCCN1C(=O)c2ccccc2C1=O (stereo unspecified) | > 100 | > 100 | > 100 | > 100 | > 100 | > 100
COc1cccc(/C=N/NC(=O)CSCC(=O)N/N=C/c2cccc(OC)c2OC)c1OC | > 100 | > 100 | > 100 | > 100 | > 100 | > 100
CC(=O)Nc1ccc2nc(-c3ccccn3)c(-c3ccccn3)nc2c1 | > 100 | – | – | > 100 | > 100 | > 100
COC1CCON1C(=O)c1ccccc1 (stereo unspecified) | > 10 | > 10 | > 10 | > 10 | > 10 | > 10
COc1cc(-c2nc3ccc(N4CCN(C)CC4)cc3[nH]2)c(OC)c2[nH]c(COC(C)=O)nc12 | > 100 | > 100 | > 100 | > 100 | > 100 | > 100
COC(=O)C1Cc2ccc(O)c(O)c2CN1 (stereo unspecified) | > 100 | 31.8 | > 100 | 68 | 31.2 | 20.4
COc1ccc(OC)c(NCC(=O)Nn2cnc3ccc(S(=O)(=O)Nc4cc(OC)ccc4OC)cc3c2=O)c1 | > 100 | > 100 | > 100 | – | > 100 | > 100
CCOC(=O)c1nc2ccc(C(F)(F)F)cc2nc1Nc1cc(OC)c(OC)c(OC)c1 | – | > 100 | > 100 | > 100 | – | > 100
C1CSCCSCCCSC2CCCCC2SC1 (stereo unspecified) | – | > 100 | > 100 | > 100 | – | > 100
CCOC(=O)CC(c1ccccc1)C(C)(C(=O)OCC)C(=O)OCC (stereo unspecified) | > 100 | > 100 | > 100 | – | > 100 | > 100
Clc1cccc(-c2sc(-c3ccsc3)cc2Cc2ccsc2)c1 | > 10 | > 10 | > 10 | > 10 | – | > 10
CC(=O)Oc1cc(S(=O)(=O)Nc2n[nH]c(Nc3ccc(C)cc3)n2)c(S)cc1Cl | > 100 | > 100 | – | > 100 | > 100 | > 100
O=[N+]([O-])C(/C=C(\Cl)[N+](=O)[O-])=C1Nc2ccccc2N1 | 69.4 | > 100 | > 100 | > 100 | – | > 100
CCOP(=O)(OCC)/C(C#N)=C/c1cccn1C(C)C | > 100 | > 100 | > 100 | – | > 100 | > 100
COc1cc(C2C3=C(COC3=O)Oc3cc4c(cc32)OCO4)ccc1O (stereo unspecified) | 0.438 | > 100 | > 100 | > 63.2 | > 100 | –
COC(=O)N1CC(=O)C(C(=O)NC23CC4CC(CC(C4)C2)C3)C1 (stereo unspecified) | > 100 | > 100 | – | > 100 | > 100 | > 100
CCc1c2c(cc3c1CC1(C3)Cc3cc4c(c(C(=O)OC)c3C1)CCCC4)CCCC2 (stereo unspecified) | – | > 100 | > 100 | > 100 | > 100 | > 100
Cc1cc(S(=O)(=O)N2CCNNC2=O)c(S)cc1Cl | > 100 | – | – | > 100 | > 100 | > 100
